# Laboratory results: ChEMBL document CHEMBL5241130, “Integrating a phenotypic screening with a structural simplification strategy to identify 4-phenoxy-quinoline derivatives to potently disrupt the mitotic localization of Aurora kinase B” (Bioorg Med Chem, 2023)
# Active and inactive are the calls of the source. The calls are words filed in the database; no cut-off is given here.
# Key:
# [1] = target: Aurora kinase B (Homo sapiens) (UniProt Q96GD4); test: Disruption of mitotic localization of AURKB in human RPE-MYC H2B-GFP cells assessed as induction of mitotic arrest measured after 24 hrs by fluorescence high content cell imaging analysis; type: cell-based
# [2] = target: Aurora kinase B (Homo sapiens) (UniProt Q96GD4); test: Disruption of mitotic localization of AURKB in human RPE-MYC cells expressing BCL2 assessed as disruption of PLK1 localization at spindle mid-zone at 40 nM measured after 6 hrs by immunofluorescence staining analysis; type: cell-based
# [3] = target: Aurora kinase B (Homo sapiens) (UniProt Q96GD4); test: Disruption of mitotic localization of AURKB in human RPE-MYC cells expressing BCL2 assessed as disruption of PLK1 localization at centrosome during prophase at 40 nM measured after 6 hrs by immunofluorescence staining analysis; type: cell-based
# NCI-H23 = test: Cytotoxicity against human NCI-H23 cells assessed as cell growth inhibition incubated for 3 days by MTT assay; type: functional, cell-based; details: time 3.0 day
# HeLa = test: Cytotoxicity against human HeLa cells assessed as cell growth inhibition incubated for 3 days by MTT assay; type: functional, cell-based; details: time 3.0 day
# [4] = target: Tyrosine-protein kinase ABL1 (Homo sapiens) (UniProt P00519); test: Inhibition of human recombinant ABL1 at 2 uM by KINOMEscan assay
# [5] = test system: Tyrosine-protein kinase ABL1 (Homo sapiens), P00519 [Q252H]; test: Inhibition of human recombinant ABL1 Q252H mutant at 2 uM by KINOMEscan assay
# [6] = target: Discoidin domain-containing receptor 2 (Homo sapiens, UniProt Q16832); test: Inhibition of DDR2 (unknown origin) assessed as inhibition of DDR2 interaction with DNA-bound ligand by qPCR analysis
# [7] = target: Serine/threonine-protein kinase PLK1 (Homo sapiens) (UniProt P53350); test: Inhibition of PLK1 (unknown origin) by bio-chip based analysis
# [8] = target: Serine/threonine-protein kinase PLK2 (Homo sapiens) (UniProt Q9NYY3); test: Inhibition of PLK2 (unknown origin) by bio-chip based analysis
# [9] = target: Mitotic checkpoint serine/threonine-protein kinase BUB1 (Homo sapiens) (UniProt O43683); test: Inhibition of Bub1 (unknown origin) by bio-chip based analysis
# [10] = target: Rho-associated protein kinase 2 (Homo sapiens) (UniProt O75116); test: Inhibition of ROCK2 (unknown origin) by bio-chip based analysis
# [11] = target: Aurora kinase B (Homo sapiens) (UniProt Q96GD4); test: Inhibition of AURKB (unknown origin) by bio-chip based analysis
# [12] = target: Mast/stem cell growth factor receptor Kit (Homo sapiens, UniProt P10721); test: Inhibition of c-Kit (unknown origin); type: toxicity
# [13] = target: Receptor-type tyrosine-protein kinase FLT3 (Homo sapiens, UniProt P36888); test: Inhibition of FLT3 (unknown origin); type: toxicity
# [14] = Drug degradation in mouse plasma at 1 to 10 uM incubated for 2 hrs by LC-MS analysis; type: ADME, cell-free; details: dose 1-10 µM, read-out: Drug degradation
# [15] = Drug degradation in HCl buffer at pH 2.2 measured after 72 hrs by LC-MS analysis; type: physicochemical; details: read-out: Drug degradation
# [16] = Kinetic solubility of the compound in PBS buffer at pH 7.4 measured after 72 hrs by LC-MS analysis; type: physicochemical; details: read-out: Kinetic_solubility
# [17] = Lipophilicity, log D of the compound in Octanol and HCl buffer at pH 2.2 incubated for 24 hrs under shaking condition followed by incubation for 1 hr without shaking by LC-MS analysis; type: physicochemical
# [18] = Half life in Wistar rat at 20 mg/kg, po measured for 24 hrs by LC-MS/MS analysis; type: ADME, organism-based; details: in vivo
# [19] = Tmax in Wistar rat at 20 mg/kg, po measured for 24 hrs by LC-MS/MS analysis; type: ADME, organism-based; details: in vivo
# [20] = Dose normalized AUC (0 to infinity) in Wistar rat at 20 mg/kg, po by LC-MS/MS analysis; type: ADME, organism-based; details: in vivo
# [21] = Apparent volume of distribution in Wistar rat at 20 mg/kg, po measured for 24 hrs by LC-MS/MS analysis; type: ADME, organism-based; details: in vivo
# [22] = MRT (0 to infinity) in Wistar rat at 20 mg/kg, po by LC-MS/MS analysis; type: ADME, organism-based; details: in vivo
# [23] = Oral bioavailability in Wistar rat at 20 mg/kg measured for 24 hrs by LC-MS/MS analysis; type: ADME, organism-based; details: in vivo
# [24] = Clearance in Wistar rat at 2 mg/kg, iv measured after 24 hrs by LC-MS/MS analysis; type: ADME, organism-based; details: in vivo
# [25] = Toxicity in BALB/c nude mouse xenografted with human HCT-116 cells assessed as body weight at 50 mg/kg, po bid for 7 days; type: organism-based; details: in vivo, 168 h, time 7 day
# [26] = Toxicity in BALB/c nude mouse xenografted with human HCT-116 cells assessed as animal's well being at 50 mg/kg, po bid for 7 days; type: organism-based; details: in vivo, 168 h, time 7 day
# [27] = Drug uptake in tumor of BALB/c nude mouse xenografted with human HCT-116 cells at 50 mg/kg, po bid for 7 days and measured at 6 hrs post-last drug administration by LC-MS/MS analysis; type: ADME, organism-based, Neoplasm; details: time 7 day, read-out: Drug uptake
# [28] = Ratio of AUC (0 to 6 hrs) in BALB/c nude mouse xenografted with human HCT-116 cells at 50 mg/kg, po bid for 7 days to AUC (0 to 6 hrs) in BALB/c nude mouse xenografted with human HCT-116 cells administered as single dose; type: ADME, organism-based; details: in vivo
# [29] = Plasma concentration in BALB/c nude mouse xenografted with human HCT-116 cells at 50 mg/kg, po bid for 7 days and measured at 12 hrs post-last drug administration by LC-MS/MS analysis; type: ADME, organism-based; details: time 7 day
# [30] = target: Aurora kinase B (Homo sapiens) (UniProt Q96GD4); test: Disruption of mitotic localization of AURKB in human RPE-MYC H2B-GFP cells assessed as induction of polyploidy by fluorescence high content cell imaging analysis relative to control; type: cell-based
# [31] = target: T1, Aurora kinase A (Homo sapiens) (UniProt O14965); test: Inhibition of AURKA in human RPE-MYC H2B-GFP cells assessed as inhibition of autophosphorylation of AURKA at Thr288 residue at 8XMEC measured after 6 hrs by immunofluorescence staining analysis; type: cell-based
# T1 sequence (whole entry): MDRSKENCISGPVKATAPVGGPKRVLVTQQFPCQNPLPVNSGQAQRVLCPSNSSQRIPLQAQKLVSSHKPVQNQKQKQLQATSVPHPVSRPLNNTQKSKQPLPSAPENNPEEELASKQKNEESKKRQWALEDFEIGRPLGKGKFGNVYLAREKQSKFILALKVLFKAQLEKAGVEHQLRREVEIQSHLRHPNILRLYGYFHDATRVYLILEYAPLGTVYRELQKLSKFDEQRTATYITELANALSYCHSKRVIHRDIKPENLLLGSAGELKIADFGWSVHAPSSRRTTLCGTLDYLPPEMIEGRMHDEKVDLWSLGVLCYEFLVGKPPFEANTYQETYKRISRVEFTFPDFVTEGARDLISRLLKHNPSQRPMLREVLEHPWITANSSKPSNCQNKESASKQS
# [32] = target: Aurora kinase B (Homo sapiens) (UniProt Q96GD4); test: Inhibition of AURKB in human RPE-MYC H2B-GFP cells assessed as inhibition of histone H3 phosphorylation at Ser10 residue at 8XMEC measured after 6 hrs by immunofluorescence staining analysis; type: cell-based
# Aurora kinase B (Homo sapiens), sequence (Q96GD4 whole entry): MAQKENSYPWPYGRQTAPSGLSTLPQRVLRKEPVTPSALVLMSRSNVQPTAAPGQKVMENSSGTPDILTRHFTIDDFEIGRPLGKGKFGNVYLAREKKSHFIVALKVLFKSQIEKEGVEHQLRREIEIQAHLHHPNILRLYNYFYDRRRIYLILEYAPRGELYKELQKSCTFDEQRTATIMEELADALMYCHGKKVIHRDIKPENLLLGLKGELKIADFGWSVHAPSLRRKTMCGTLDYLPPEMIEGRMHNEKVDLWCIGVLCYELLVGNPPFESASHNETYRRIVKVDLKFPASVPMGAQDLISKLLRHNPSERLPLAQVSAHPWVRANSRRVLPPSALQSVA
# Serine/threonine-protein kinase PLK2 (Homo sapiens), sequence (Q9NYY3 whole entry, looked up): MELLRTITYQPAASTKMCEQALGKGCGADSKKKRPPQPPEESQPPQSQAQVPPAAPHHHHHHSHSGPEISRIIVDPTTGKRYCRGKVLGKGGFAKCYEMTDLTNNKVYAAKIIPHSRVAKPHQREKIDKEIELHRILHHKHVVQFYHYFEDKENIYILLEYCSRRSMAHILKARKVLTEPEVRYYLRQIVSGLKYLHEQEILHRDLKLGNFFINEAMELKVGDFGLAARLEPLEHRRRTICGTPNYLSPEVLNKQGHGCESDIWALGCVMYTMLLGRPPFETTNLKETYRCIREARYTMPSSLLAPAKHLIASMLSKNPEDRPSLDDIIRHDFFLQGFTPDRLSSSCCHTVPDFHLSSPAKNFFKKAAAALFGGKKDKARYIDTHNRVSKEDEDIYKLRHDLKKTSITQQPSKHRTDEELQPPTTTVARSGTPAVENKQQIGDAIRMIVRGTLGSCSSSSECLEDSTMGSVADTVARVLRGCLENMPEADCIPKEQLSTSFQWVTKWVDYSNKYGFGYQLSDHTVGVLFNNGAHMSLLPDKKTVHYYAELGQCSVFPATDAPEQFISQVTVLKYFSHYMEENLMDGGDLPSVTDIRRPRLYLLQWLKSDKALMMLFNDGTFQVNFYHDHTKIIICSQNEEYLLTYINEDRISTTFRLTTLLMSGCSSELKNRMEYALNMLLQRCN
# Serine/threonine-protein kinase PLK1 (Homo sapiens), sequence (P53350 whole entry): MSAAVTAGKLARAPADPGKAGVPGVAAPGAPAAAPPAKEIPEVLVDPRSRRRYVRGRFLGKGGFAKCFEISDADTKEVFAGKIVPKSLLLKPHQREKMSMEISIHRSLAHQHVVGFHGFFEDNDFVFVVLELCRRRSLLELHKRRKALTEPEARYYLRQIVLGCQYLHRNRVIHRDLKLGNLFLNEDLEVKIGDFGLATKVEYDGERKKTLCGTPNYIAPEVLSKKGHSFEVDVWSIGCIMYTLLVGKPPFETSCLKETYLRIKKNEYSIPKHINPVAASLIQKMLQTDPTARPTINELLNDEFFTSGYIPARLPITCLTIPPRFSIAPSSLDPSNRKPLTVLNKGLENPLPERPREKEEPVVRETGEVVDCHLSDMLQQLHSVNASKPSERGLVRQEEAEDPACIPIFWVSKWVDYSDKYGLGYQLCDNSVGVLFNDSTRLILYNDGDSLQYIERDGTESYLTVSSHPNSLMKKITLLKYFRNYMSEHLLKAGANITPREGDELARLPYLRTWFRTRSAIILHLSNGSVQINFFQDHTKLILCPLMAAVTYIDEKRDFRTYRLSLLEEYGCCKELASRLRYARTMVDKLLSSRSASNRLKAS
# Rho-associated protein kinase 2 (Homo sapiens), sequence (O75116 whole entry, looked up): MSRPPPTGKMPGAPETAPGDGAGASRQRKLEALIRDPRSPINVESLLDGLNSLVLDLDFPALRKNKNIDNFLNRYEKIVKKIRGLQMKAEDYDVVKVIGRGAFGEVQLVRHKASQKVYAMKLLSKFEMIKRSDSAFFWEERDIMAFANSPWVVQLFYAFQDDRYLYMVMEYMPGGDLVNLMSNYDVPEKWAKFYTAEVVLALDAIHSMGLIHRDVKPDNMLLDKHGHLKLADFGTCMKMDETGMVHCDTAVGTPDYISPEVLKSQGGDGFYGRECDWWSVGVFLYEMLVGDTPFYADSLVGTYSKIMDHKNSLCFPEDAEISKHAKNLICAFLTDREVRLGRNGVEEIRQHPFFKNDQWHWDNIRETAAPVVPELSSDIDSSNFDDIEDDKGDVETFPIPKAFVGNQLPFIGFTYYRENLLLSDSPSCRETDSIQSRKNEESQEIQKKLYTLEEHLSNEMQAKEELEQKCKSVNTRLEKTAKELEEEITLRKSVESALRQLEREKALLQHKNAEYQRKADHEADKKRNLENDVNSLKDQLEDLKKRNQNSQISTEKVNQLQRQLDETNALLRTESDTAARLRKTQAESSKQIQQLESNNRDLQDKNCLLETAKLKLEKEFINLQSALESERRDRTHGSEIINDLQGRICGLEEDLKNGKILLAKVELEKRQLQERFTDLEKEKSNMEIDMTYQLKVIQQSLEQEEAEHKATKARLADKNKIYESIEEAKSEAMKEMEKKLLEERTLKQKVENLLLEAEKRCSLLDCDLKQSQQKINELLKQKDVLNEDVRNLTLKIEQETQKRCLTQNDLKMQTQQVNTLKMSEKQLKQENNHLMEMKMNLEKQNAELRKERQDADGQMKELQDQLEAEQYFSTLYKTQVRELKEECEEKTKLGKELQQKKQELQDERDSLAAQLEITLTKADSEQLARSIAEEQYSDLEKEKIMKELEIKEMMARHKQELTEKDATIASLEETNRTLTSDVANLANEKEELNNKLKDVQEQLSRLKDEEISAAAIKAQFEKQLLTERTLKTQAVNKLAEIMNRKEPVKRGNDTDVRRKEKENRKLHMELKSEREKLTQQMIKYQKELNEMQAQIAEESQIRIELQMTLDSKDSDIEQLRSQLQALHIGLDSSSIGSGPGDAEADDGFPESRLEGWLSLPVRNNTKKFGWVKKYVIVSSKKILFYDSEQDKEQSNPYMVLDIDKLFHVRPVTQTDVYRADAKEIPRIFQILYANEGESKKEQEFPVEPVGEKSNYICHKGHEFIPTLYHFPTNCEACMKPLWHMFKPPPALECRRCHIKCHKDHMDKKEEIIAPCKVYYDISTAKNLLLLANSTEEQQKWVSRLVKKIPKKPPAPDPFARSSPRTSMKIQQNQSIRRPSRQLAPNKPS
# Mitotic checkpoint serine/threonine-protein kinase BUB1 (Homo sapiens), sequence (O43683 whole entry, looked up): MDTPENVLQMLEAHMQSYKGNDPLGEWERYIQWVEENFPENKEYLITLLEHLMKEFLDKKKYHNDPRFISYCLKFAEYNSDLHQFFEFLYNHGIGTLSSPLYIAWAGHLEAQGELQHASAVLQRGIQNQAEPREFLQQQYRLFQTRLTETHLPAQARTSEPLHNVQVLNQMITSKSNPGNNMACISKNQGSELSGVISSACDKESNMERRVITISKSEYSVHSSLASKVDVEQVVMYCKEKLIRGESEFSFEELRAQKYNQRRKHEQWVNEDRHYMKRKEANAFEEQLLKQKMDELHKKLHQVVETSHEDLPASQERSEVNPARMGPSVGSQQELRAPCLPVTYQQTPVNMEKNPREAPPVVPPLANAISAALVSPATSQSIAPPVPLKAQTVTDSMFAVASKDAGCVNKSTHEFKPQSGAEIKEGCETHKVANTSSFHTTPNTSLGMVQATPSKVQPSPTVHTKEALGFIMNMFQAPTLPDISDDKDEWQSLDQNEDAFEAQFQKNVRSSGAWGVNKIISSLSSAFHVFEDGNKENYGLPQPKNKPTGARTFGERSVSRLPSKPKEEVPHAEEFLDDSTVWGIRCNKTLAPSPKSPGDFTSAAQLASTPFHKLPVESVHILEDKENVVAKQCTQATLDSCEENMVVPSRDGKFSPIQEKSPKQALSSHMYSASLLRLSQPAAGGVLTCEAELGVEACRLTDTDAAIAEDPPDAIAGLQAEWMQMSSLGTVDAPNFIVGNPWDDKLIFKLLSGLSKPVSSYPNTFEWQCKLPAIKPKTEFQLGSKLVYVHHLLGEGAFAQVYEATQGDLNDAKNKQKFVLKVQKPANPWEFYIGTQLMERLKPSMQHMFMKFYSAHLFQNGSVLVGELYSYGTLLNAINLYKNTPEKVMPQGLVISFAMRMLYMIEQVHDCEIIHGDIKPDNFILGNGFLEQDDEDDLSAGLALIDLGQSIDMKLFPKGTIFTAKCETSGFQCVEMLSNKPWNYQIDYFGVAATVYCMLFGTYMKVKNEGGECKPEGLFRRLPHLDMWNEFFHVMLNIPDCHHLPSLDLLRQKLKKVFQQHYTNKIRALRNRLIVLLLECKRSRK
# Mast/stem cell growth factor receptor Kit, sequence (P10721 whole entry): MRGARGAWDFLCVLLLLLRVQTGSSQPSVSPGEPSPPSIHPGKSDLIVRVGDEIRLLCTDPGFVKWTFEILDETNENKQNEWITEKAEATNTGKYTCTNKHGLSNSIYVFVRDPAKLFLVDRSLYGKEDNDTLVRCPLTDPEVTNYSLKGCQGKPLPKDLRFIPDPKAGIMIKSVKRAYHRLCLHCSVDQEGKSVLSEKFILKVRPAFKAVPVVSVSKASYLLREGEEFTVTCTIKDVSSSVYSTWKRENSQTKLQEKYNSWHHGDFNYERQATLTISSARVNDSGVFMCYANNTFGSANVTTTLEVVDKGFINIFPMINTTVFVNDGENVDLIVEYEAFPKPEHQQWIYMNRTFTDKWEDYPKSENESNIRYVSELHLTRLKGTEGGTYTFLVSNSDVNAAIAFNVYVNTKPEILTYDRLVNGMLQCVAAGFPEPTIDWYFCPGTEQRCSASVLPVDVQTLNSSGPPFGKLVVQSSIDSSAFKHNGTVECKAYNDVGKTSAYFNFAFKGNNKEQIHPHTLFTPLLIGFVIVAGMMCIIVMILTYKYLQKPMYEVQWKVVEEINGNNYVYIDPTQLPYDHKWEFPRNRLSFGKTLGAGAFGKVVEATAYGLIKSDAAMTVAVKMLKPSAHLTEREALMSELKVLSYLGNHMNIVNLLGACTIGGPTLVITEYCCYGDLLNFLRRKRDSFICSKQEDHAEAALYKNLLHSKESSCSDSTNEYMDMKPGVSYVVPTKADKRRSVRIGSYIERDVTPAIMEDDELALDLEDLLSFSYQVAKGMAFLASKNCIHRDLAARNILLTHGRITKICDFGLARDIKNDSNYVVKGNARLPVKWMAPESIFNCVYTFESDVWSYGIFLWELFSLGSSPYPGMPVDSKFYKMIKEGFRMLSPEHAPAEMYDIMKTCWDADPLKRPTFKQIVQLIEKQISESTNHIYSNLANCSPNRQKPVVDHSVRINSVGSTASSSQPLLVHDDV
smiles,measurement,setting,value
COc1cc(NC(C)=O)cc(Oc2ccnc3ccc(OC)cc23)c1,MEC,[1],0.01 µM
same,Activity,[2],Active
same,Activity,[3],inactive
same,Activity,NCI-H23,Active
same,Activity,HeLa,Active
same,inhibition,[4],Active
same,inhibition,[5],Active
same,IC50,[6],0.225 µM
same,inhibition,[7],inactive
same,inhibition,[8],inactive
same,inhibition,[9],inactive
same,inhibition,[10],inactive
same,inhibition,[11],inactive
same,inhibition (INH),[12],Not Active
same,inhibition (INH),[13],Not Active
same,"metabolised at 2 h, up to 10 µM",[14],0%
same,degraded at 72 h,[15],0%
same,solubility kinetic at 72 h,[16],16 µM
same,logD at 25 h,[17],0.31
same,half-life,[18],3.26 h
same,Tmax,[19],0.5 h
same,AUC/dose,[20],149.54 ng·h/mL/mg/kg
same,Vz,[21],15.41 L/kg
same,MRT inf,[22],2.83 h
same,bioavailability,[23],27.6%
same,clearance,[24],1.76 L/h/kg
same,Activity,[25],Non-Toxic
same,Activity,[26],Non-Toxic
same,concentration at 168 h,[27],0.239 µg/mL
same,Ratio,[28],2
same,concentration at 168 h,[29],0.00327 µg/mL
same,Activity,[30],100%
same,inhibition,[31],< 40%
same,inhibition,[32],< 40%
